In patent publication US10125126B2, “N-cycloalkyl-N-[(heterocyclylphenyl)methylene]-(thio)carboxamide derivatives” (BAYER CROPSCIENCE AG, priority 2012, dated 2018):

system: Sphaerotheca fuliginea; experiment: In vivo preventive test on Sphaerotheca fuliginea (powdery mildew on cucurbits); conditions: Podosphaera fuliginea, 288 h, 500 ppm of active ingredient; gherkin plants; 12 days after contamination; read-out: Efficacy
Procedure: In Vivo Preventive Test on Sphaerotheca fuliginea (Powdery Mildew on Cucurbits) […] Gherkin plants (“Vert petit de Paris” variety), sown in starter cups on a 50/50 peat soil-pozzolana substrate and grown at 24° C., are treated at the Z11 cotyledon stage by spraying with the active ingredient prepared as described above. Plants, used as controls, are treated with the mixture of acetone/tween/DMSO/water not containing the active material. After 24 hours, the plants are contaminated by spraying the cotyledons with an aqueous suspension of Sphaerotheca fuliginea spores (100 000 spores per mL). The spores are collected from infected plants. […] Grading (% of efficacy) is carried out 12 days after the contamination, in comparison with the control plants.

Compound | pest or weed control at 500 ppm [%]
Cn1nc(C(F)F)c(C(=O)N(Cc2ccccc2-c2cccc(Cl)n2)C2CC2)c1F [CMP3, N-[2-(6-chloropyridin-2-yl)benzyl]-N-cyclopropyl-3-(difluoromethyl)-5-fluoro-1-methyl-1H-pyrazole-4-carboxamide, reference compound] | < 40

system: not listed separately; experiment: log P by HPLC on a reversed-phase column (C 18), EEC Directive 79/831 Annex V.A8; type: physicochemical; conditions: HPLC on reversed-phase column (C 18), 40° C., 0.1% aqueous formic acid and acetonitrile, linear gradient 10% to 90% acetonitrile
Procedure: In table 1, the log P values were determined in accordance with EEC Directive 79/831 Annex V.A8 by HPLC (High Performance Liquid Chromatography) on a reversed-phase column (C 18), using the method described below: Temperature: 40° C.; Mobile phases: 0.1% aqueous formic acid and acetonitrile; linear gradient from 10% acetonitrile to 90% acetonitrile. Calibration was carried out using unbranched alkan-2-ones (comprising 3 to 16 carbon atoms) with known log P values (determination of the log P values by the retention times using linear interpolation between two successive alkanones). lambda-max-values were determined using UV-spectra from 200 nm to 400 nm and the peak values of the chromatographic signals.

Compound | logP
Cn1cc(C(=O)N(Cc2cc(-c3ccsc3)ccc2Cl)C2CC2)c(C(F)F)c1 [I.92] | 4.06
CC(c1ccccc1Cc1ccc(Cl)cn1)N(C(=O)c1c(C(F)F)nn(C)c1F)C1CC1 (stereo not drawn) [I.171] | 3.68
Cn1cc(C(=O)N(Cc2ccccc2-c2ccco2)C2CC2)c(C(F)F)c1 [I.42] | 3.44
Cn1nc(C(F)F)c(C(=O)N(Cc2cc(Cl)ccc2C23CCCCCC2O3)C2CC2)c1F (stereo not drawn) [I.25] | 4.44
O=C(c1ccsc1I)N(Cc1cc(-c2ccsc2)ccc1Cl)C1CC1 [I.89] | 4.78
Cn1nc(C(F)F)c(C(=O)N(Cc2cc(Cl)ccc2C23CCCCC2O3)C2CC2)c1F (stereo not drawn) [I.23] | 3.99
Cn1cc(C(=O)N(Cc2cc(-c3cccs3)ccc2Cl)C2CC2)c(C(F)F)c1 [I.90] | 4.16
Cn1nc(C(F)F)c(C(=O)N(Cc2c(C3(C)CO3)ccc(Cl)c2F)C2CC2)c1F (stereo not drawn) [I.13] | 3.29
Cn1nc(C(F)F)c(C(=O)N(Cc2ccccc2C23CCCCCC2O3)C2CC2)c1F (stereo not drawn) [I.26] | 3.94
N-cyclopropyl-3-(difluoromethyl)-5-fluoro-1-methyl-N-[2-(3-methyloxetan-3-yl)benzyl]-1H-pyrazole-4-carboxamide [I.15] | 1.94
O=C(c1ccsc1I)N(Cc1cc(Cl)ccc1-c1ccc(Cl)s1)C1CC1 [I.147] | 5.68
Cc1cc(C(=O)N(Cc2cc(-c3cccs3)ccc2Cl)C2CC2)c(C)o1 [I.99] | 4.72
Cc1ccc(-c2cnn(C)c2)c(CN(C(=O)c2cn(C)nc2C(F)F)[C@@H]2C[C@H]2C)c1 (relative stereo) [I.62] | 2.66
O=C(c1ccsc1I)N(Cc1cc(-c2cccs2)ccc1Cl)C1CC1 [I.91] | 4.91
O=C(c1ccsc1I)N(Cc1ccccc1-c1ccco1)C1CC1 [I.33] | 4.01
Cc1nn(C)c(C)c1-c1ccc(C(C)C)c(CN(C(=O)c2c(C(F)F)nn(C)c2F)C2CC2)c1 [I.118] | 3.23
CC(C)c1ccc(-c2cn(C)c3ccccc23)cc1CN(C(=O)c1c(C(F)F)nn(C)c1F)C1CC1 [I.153] | 4.74
Cn1nc(C(F)F)c(C(=O)N(Cc2ccccc2C23CCCCC2O3)C2CC2)c1F (stereo not drawn) [I.24] | 3.48
Cn1nc(C(F)F)c(C(=O)N(Cc2ccccc2C23CCCC2O3)C2CC2)c1F (stereo not drawn) [I.19] | 3.12
Cn1nc(C(F)F)c(C(=O)N(Cc2cc(C34CCCCC3O4)ccc2Cl)C2CC2)c1F (stereo not drawn) [I.22] | 3.99
Cc1nc(C(F)F)c(C(=O)N(Cc2cc(-c3ccco3)ccc2Cl)C2CC2)s1 [I.46] | 3.99
Cn1nc(C(F)F)c(C(=O)N(Cc2cc(Cl)ccc2C23CCCC2O3)C2CC2)c1F (stereo not drawn) [I.18] | 3.60
CC(C)c1ccc(-c2cnn(C)c2)cc1CN(C(=O)c1c(C(F)F)nn(C)c1F)C1CC1 [I.65] | 3.13
Cn1nc(C(F)F)c(C(=O)N(Cc2ccccc2OC2CCOCC2)C2CC2)c1F [I.169] | 2.80

Other lines, results leading:

logP | Compound
2.86 | Cc1ccc(-c2cnn(C)c2)c(CN(C(=O)c2c(C(F)F)nn(C)c2Cl)[C@@H]2C[C@H]2C)c1 (relative stereo) [I.64]
2.08 | CC1OCC1c1ccccc1CN(C(=O)c1c(C(F)F)nn(C)c1Cl)C1CC1 (stereo not drawn) [I.16]
4.41 | COc1ccsc1-c1ccc(C)cc1CN(C(=O)c1c(C(F)F)nn(C)c1Cl)C1CC1C (stereo not drawn) [I.128]
2.63 | Cc1ccc(-c2cnn(C)c2)c(CN(C(=O)c2c(C(F)F)nn(C)c2F)C2CC2)c1 [I.58]
3.85 | Cc1ccc(-c2ccsc2Cl)c(CN(C(=O)c2cn(C)nc2C(F)F)C2CC2)c1 [I.149]
2.45 | Cc1ccc(-c2c(C)nn(C)c2C)c(CN(C(=O)c2cn(C)nc2C(F)F)C2CC2)c1 [I.116]
4.26 | Cc1nc(C(F)F)c(C(=O)N(Cc2cc(-c3cccs3)ccc2Cl)C2CC2)s1 [I.97]
4.83 | Cc1ccc(-c2csc3ccccc23)c(CN(C(=O)c2c(C(F)F)nn(C)c2Cl)C2CC2)c1 [I.162]
4.92 | Cc1ccc(-c2csc3ccccc23)c(CN(C(=O)c2c(C(F)F)nn(C)c2F)C2CC2C)c1 (stereo not drawn) [I.166]
2.82 | Cc1ccc(-c2cnn(C)c2)c(CN(C(=O)c2c(C(F)F)nn(C)c2F)[C@@H]2C[C@H]2C)c1 (relative stereo) [I.63]
3.19 | Cc1ccc(-c2ccoc2)c(CN(C(=O)c2cn(C)nc2C(F)F)C2CC2)c1 [I.38]
3.69 | Cc1ccc(-c2ccn(C)c2)c(CN(C(=O)c2c(C(F)F)nn(C)c2Cl)C2CC2)c1 [I.53]
3.89 | Cc1ccc(-c2coc3ccccc23)c(CN(C(=O)c2cn(C)nc2C(F)F)C2CC2)c1 [I.135]
5.19 | Cn1nc(C(F)F)c(C(=S)N(Cc2ccccc2-c2ccc(Cl)s2)C2CC2)c1Cl [I.142]
3.67 | Cn1nc(C(F)F)c(C(=O)N(Cc2c(C3(C)CO3)ccc(Cl)c2Cl)C2CC2)c1Cl (stereo not drawn) [I.11]
4.49 | Cn1nc(C(F)F)c(C(=S)N(Cc2ccccc2-c2cccs2)C2CC2)c1Cl [I.81]
1.56 | Cn1nc(C(F)F)c(C(=O)N(Cc2ccccc2C2COC2)C2CC2)c1Cl [I.2]
3.25 | Cc1ccc(CN(C(=O)c2c(C(F)F)nn(C)c2F)C2CC2)c(C2(C)OCCO2)c1 [I.21]
3.19 | Cc1ccc(-c2ccn(C)c2)c(CN(C(=O)c2cn(C)nc2C(F)F)C2CC2)c1 [I.52]
4.15 | Cc1ccc(-c2csc3ccccc23)c(CN(C(=O)c2cn(C)nc2C(F)F)C2CC2)c1 [I.161]
3.55 | Cc1ccc(-c2ccn(C)c2)c(CN(C(=O)c2c(C(F)F)nn(C)c2F)C2CC2)c1 [I.51]
3.99 | COc1ccsc1-c1ccc(C)cc1CN(C(=O)c1c(C(F)F)nn(C)c1Cl)C1CC1 [I.126]
4.16 | Cn1nc(C(F)F)c(C(=O)N(Cc2cc(-c3ccsc3)ccc2Cl)C2CC2)c1Cl [I.94]
5.00 | Cc1nc(C(F)F)c(C(=O)N(Cc2cc(-c3ccc(Cl)s3)ccc2Cl)C2CC2)s1 [I.151]
4.72 | Cc1cscc1-c1ccc(C(C)C)c(CN(C(=O)c2c(C(F)F)nn(C)c2F)C2CC2)c1 [I.110]
4.46 | Cc1ccc(-c2csc3ccccc23)c(CN(C(=O)c2cn(C)nc2C(F)F)C2CC2C)c1 (stereo not drawn) [I.165]

same assay, conditions: HPLC, C 18, 40° C., 0.1% aqueous formic acid and acetonitrile

Compound | logP
N-cyclopropyl-3-(difluoromethyl)-5-fluoro-1-methyl-N-[2-(3-methyloxetan-3-yl)benzyl]-1H-pyrazole-4-carboxamide [I.15] | 1.94

same assay, conditions: logP

chromatographic logP | Compound
3.46 | CC(C)c1ccc(Cl)cc1CNC(=O)c1c(C(F)F)nn(C)c1F [Xa.1, N-(5-chloro-2-isopropylbenzyl)-3-(difluoromethyl)-5-fluoro-1-methyl-1H-pyrazole-4-carboxamide]

same assay, conditions: reversed-phase HPLC column (C 18), HPLC, C 18, 40° C., 0.1% aqueous formic acid and acetonitrile; read-out: logP

chromatographic logP | Compound
1.58 | Clc1ccc(-c2ccc(Cl)c(CNC3CC3)c2)s1 [IIb.4, N-[2-chloro-5-(5-chloro-2-thienyl)benzyl]cyclopropanamine]
1.42 | CC(NC1CC1)c1ccccc1-c1ccsc1 (stereo not drawn) [IIa.4, N-{1-[2-(3-thienyl)phenyl]ethyl}cyclopropanamine]
1.34 | c1ccc(-c2ccsc2)c(CNC2CC2)c1 [IIa.3, N-[2-(3-thienyl)benzyl]cyclopropanamine]
1.2 | CC(C)c1ccc(Cl)cc1CN [1-(5-chloro-2-isopropylphenyl)methanamine]
1.12 | Clc1ccc(-c2ccsc2)c(CNC2CC2)c1 [IIa.5, N-[5-chloro-2-(3-thienyl)benzyl]cyclopropanamine]
1.08 | Clc1ccc(-c2ccco2)cc1CNC1CC1 [IIb.1, N-[2-chloro-5-(2-furyl)benzyl]cyclopropanamine]
1.1 | Clc1ccc(-c2cccs2)c(CNC2CC2)c1 [IIa.2, N-[5-chloro-2-(2-thienyl)benzyl]cyclopropanamine]
4.06 | CC(C)c1ccc(Cl)cc1CN(C(=O)c1c(C(F)F)nn(C)c1F)C1CC1 [N-(5-chloro-2-isopropylbenzyl)-N-cyclopropyl-3-(difluoromethyl)-5-fluoro-1-methyl-1H-pyrazole-4-carboxamide]

system: Septoria tritici; experiment: In vivo preventive test on Septoria tritici (wheat); conditions: 100 ppm of active ingredient; wheat plants; 24 days after contamination
Procedure: In Vivo Preventive Test on Septoria tritici (Wheat) […] Wheat plants (“Scipion” variety), sown in starter cups on a 50/50 peat soil pozzolana substrate and grown at 22° C., are treated at the 1 leaf stage (10 cm height) by spraying with the active ingredient prepared as described above. Plants, used as controls, are treated with the mixture of acetone/tween/DMSO/water not containing the active material. After 24 hours, the plants are contaminated by spraying the leaves with an aqueous suspension of cryopreserved Septoria tritici spores (500 000 spores per mL). The contaminated wheat plants are incubated for 72 hours at 18° C. and at 100% relative humidity, and then for 21 days at 90% relative humidity. Grading (% of efficacy) is carried out 24 days after the contamination, in comparison with the control plants.

Compound | Efficacy [%]
Cc1ccc(-c2cnn(C)c2)c(CN(C(=O)c2c(C(F)F)nn(C)c2F)C2CC2)c1 [I.58] | 97

same assay, conditions: 500 ppm of active ingredient; wheat plants; 24 days after contamination

Compound | Efficacy [%]
CC1OCC1c1ccccc1CN(C(=O)c1c(C(F)F)nn(C)c1Cl)C1CC1 (stereo not drawn) [I.16] | 90
